# Measured values from patent US6207677A, “Piperidine derivatives having anxiolytic effect” (H. Lundbeck A/S, priority 1991, dated 2001).
# Molecular target: sigma receptors
# Assay: Inhibition of 3H-DTG binding to sigma receptors in rat brain in vitro
# Details: 2 nM 3H-DTG, rat brain without cerebellum, 25° C., 20 min
# Method: INHIBITION OF 3H-DTG BINDING TO SIGMA RECEPTORS IN RAT BRAIN IN VITRO
# By this method the inhibition by drugs of the binding of 2 nM ^3 H-DTG (1,3,di-o-tolyl guanidine) to sigma receptors in homogenates or membranes from rat brain without cerebellum is determined in vitro as modified from Weber et al. Proc. Natl. Acad. Sci. 1986, 83,8784.
# Homogenate: Rats (150-250 g) are decapitated and the brains (without cerebellum) quickly removed and placed on ice, weighed and homogenized in 100 vol ice-cold (0° C.) 50 mM Tris-buffer (pH 7.7) in an ethanol rinsed glass/teflon homogenizer at 0° C. and kept on ice until use.
# P2-membranes: Brains are homogenized in 10 vol 0.32 M sucrose in an ethanol rinsed glass/teflon homogenizer with 10 strokes up and down. The homogenate is centrifuged for 10 min at 900×gm at 4° C. The supernatant is decanted and centrifuged for 20 min at 50,000 gm at 4° C. The resulting pellet is resuspended in 10 vol ice-cold […] Tris-buffer (pH 7.7) and incubated for 30 min. at 37° C. The membrane suspension is then centrifuged for further 20 min. at 50,000 gm at 4° C. The pellet is resuspended in 50 vol. of ice-cold Tris-buffer and used immediately.
# 0.5 ml 50 mM Tris-buffer (pH 7.7), 0.25 ml displacer (6×100 μM DTG, 6× [test compound], or Tris-buffer), and 0.25 ml 6×2 nM. ^3 H-DTG are mixed into 5 ml s plastic test tubes and kept at 4° C. until use. The binding reaction is initiated by mixing 0.5 ml tissue suspension into this solution and incubate at 25° C. for 20 min. Glass fiber filters (Whatman GF/B) are placed on the filter machine which is then closed tightly. Just before filtration vacuum is applied, and the filters washed with 0.1% PEI solution from a spray bottle followed by one wash with Tris-buffer.
# The binding reaction is stopped by filtration of the assay mixture at reduced pressure (750 mbar) followed by further 3 washes with 5 ml ice-cold Tris-buffer. The filters are then placed in counting vials and 4 ml scintillation solution added. The vials are counted in a Beckmann scintillation counter.
# 50 mM Tris-buffer pH 7.7: 7.38 g Trizma--7.7 plus distilled H2 O ad 1 liter. 100 ml 10% polyethylenimine (PEI): 100 ml dest. H2 O is added to approx. 20 g 50% PEI which is solubilized by stirring and heating. Diluted (1+99) before use. 6×2 nM ^3 H-DTG: The exact volume depends on the actual concentration of the batch, but is made as close as possible to 12 nM. The containers for the radioactive solution is rinsed in 96% ethanol before use.
# ^3 H-DTG was obtained from NEN Research Products, Du Pont Denmark. Specific activity 62.3 Ci/mmol.
# The known sigma receptor ligands BMY 14802 and rimcazole were included in the test for comparison purposes.
row,Structure (SMILES),IC50 [nM]
1,"c1ccc2c(c1)COC21CCN(CCCCc2csc3ccccc23)CC1 [Compound 10a, 1'-(4-(Benzo[b]thiophen-3-yl)-1-butyl)spiro[isobenzofuran-1(3H),4'-piperidine]]",0.09
2,"c1ccc2c(c1)COC1(CCN(CCCCc3csc4ccccc34)CC1)C2 [Compound 10b, 1,4-Dihydro-1'-(4-(benzo[b]thiophen-3-yl)-1-butyl)spiro[3H-2-benzopyran-3,4'-piperidine]]",1.3
3,"Cc1ccc2scc(CCCCN3CCC4(CC3)OCc3ccccc34)c2c1 [Compound 10c, 1'-(4-(5-Methylbenzo[b]thiophen-3-yl)-1-butyl)spiro[isobenzofuran-1(3H),4'-piperidine]]",0.35
4,"Fc1ccc(C2CCN(CCCC3COc4ccc(F)cc43)CC2)cc1 (stereo not drawn) [Compound 11a, 2,3-Dihydro-5-fluoro-3-[3-(4-(4-fluorophenyl)-1-piperidinyl)-1-propyl]benzofuran]",0.31
5,"Fc1ccc2c(c1)C(CCCCN1CCC3(CC1)OCc1ccccc13)CO2 (stereo not drawn) [Compound 12, 1'-(4-(2,3-Dihydro-5-fluoro-benzofuran-3-yl)-1-butyl]-spiro[isobenzofuran-1(3H),4'-piperidine]]",0.3
6,"c1ccc2c(c1)NCC2CCCCN1CCC2(CC1)Oc1ccccc1O2 (stereo not drawn) [Compound 13a, 1'-[4-(2,3-Dihydro-3-indolyl)-1-butyl]spiro[1,3-benzodioxole-2,4'-piperidine]]",3.7
7,"c1ccc2c(c1)COC21CCN(CCCCC2CNc3ccccc32)CC1 (stereo not drawn) [Compound 13b, 1'-[4-(2,3-Dihydro-3-indolyl)-1-butyl]spiro[isobenzofuran-1(3H),4'-piperidine]]",1
8,"c1ccc2c(c1)COCC21CCN(CCCCC2CNc3ccccc32)CC1 (stereo not drawn) [Compound 13c, 1'-[4-(2,3-Dihydro-3-indolyl)-1-butyl]spiro[1H-2-benzopyran-4(3H) ,4'-piperidine]]",4.8
9,"COc1ccccc1C1CCN(CCCCC2CNc3ccccc32)CC1 (stereo not drawn) [Compound 13d, 2,3-Dihydro-3-[4-(4-(2-methoxyphenyl)-1-piperidinyl)-1-butyl]indol]",2.1
10,"Fc1ccc(-n2cc(OCCN3CCC4(CC3)OCc3ccccc34)c3cc(Cl)ccc32)cc1 [Compound 14a, 1'-[2-[5-Chloro-1-(4-fluorophenyl)-3-indolyloxy]-1-ethyl]spiro[isobenzofuran-1(3H)piperidine]]",24
11,Fc1ccc(C2CCN(CCOc3cn(-c4ccc(F)cc4)c4ccc(Cl)cc34)CC2)cc1 [Compound 14b],3.8
12,"Fc1ccc2occ(CCCN3CCC4(CC3)OCc3ccccc34)c2c1 [Compound 15, 1'-[3-(5-Fluorobenzofuran-3-yl)-1-propyl)spiro[isobenzofuran-1(3H) ,4'-piperidine]]",0.42
13,"Fc1ccc2occ(CCCCN3CCC4(CC3)OCc3ccccc34)c2c1 [Compound 16, 1'-[4-(5-Fluorobenzofuran-3-yl)-1-butyl]-spiro[isobenzofuran-1(3H) ,4'-piperidine]]",0.15
14,"Fc1ccc(-n2nc(CCCCN3CCC4(CC3)OCc3ccccc34)c3cc(C(F)(F)F)ccc32)cc1 [Compound 17a, 1'-[4-[1-(4-Fluorophenyl)-5-trifluoromethylindazol-3-yl]-1-butyl]spiro[isobenzofuran-1(3H),4'-piperidine]]",0.11
15,"FC(F)(F)c1ccc2[nH]nc(CCCCN3CCC4(CC3)OCc3ccccc34)c2c1 [Compound 18a, 1'-[4-(5-Trifluoromethylindazol-3-yl)-1-butyl]-spiro[isobenzofuran-1(3H),4'-piperidine]]",0.56
16,"c1ccc2c(c1)COC21CCN(CCCCc2noc3ccccc23)CC1 [Compound 19a, 1'-(4-(1,2-Benzisoxazol-3-yl)-1-butyl)spiro[isobenzofuran-1(3H) ,4'-piperidine]]",0.08
17,"Fc1ccc(C2CCN(CCCCc3noc4ccccc34)CC2)cc1 [Compound 19b, 3-[4-(4-(4-Fluorophenyl)-1-piperidyl)-1-butyl]-1,2-benzisoxazole]",0.49
18,"c1ccc2c(c1)COC1(CCN(CCCCc3noc4ccccc34)CC1)C2 [Compound 19c, 1-(4-(1,2-Benzisoxazol-3-yl)-1-butyl)spiro[3H-2-benzopyran-3,4'-piperidine]]",0.84

row,Structure (SMILES),IC50 [nM]
1,"Clc1cccc(Cl)c1C1CCN(CCCCc2noc3ccccc23)CC1 [Compound 19d, 3-[4-(4-(2,6-Dichlorophenyl)-1-piperidyl)-1-butyl]-1,2-benzisoxazol]",4.4
2,"c1ccc2c(c1)COC21CCN(CCCc2noc3ccccc23)CC1 [Compound 20, 1'-(3-(1,2-Benzisoxazol-3-yl)-1-propyl)spiro[isobenzofuran-1(3H) ,4'-piperidine]]",0.63
3,"Fc1ccc(C2CCN(CCCOc3nsc4ccccc34)CC2)cc1 [Compound 21, 3-[3-(4-(4-Fluorophenyl)-piperidin-1-yl)-1-propyloxy]-1,2-benzisothiazole]",0.2
4,"c1ccc2c(c1)COC21CCN(CCCCc2nsc3ccccc23)CC1 [Compound 22, 1'-(4-(1,2-Benzisothiazol-3-yl)-1-butyl)spiro[isobenzofuran-1(3H),4'-piperidine]]",0.05
5,"Fc1ccc(C2=CC3CCC(C2)N3CCCCc2cn(-c3ccc(F)cc3)c3ccccc23)cc1 (stereo not drawn) [Compound 23, 1-(4-Fluorophenyl)-3-[4-[3-(4-fluorophenyl)-8-azabicyclo[3,2,1]-oct-2-en-8-yl]-1-butyl]-indol]",2.5
6,Fc1ccc(C2CC3CCC(C2)N3CCCCc2noc3ccccc23)cc1 (stereo not drawn) [Compound 24],1.9
7,"c1ccc(CCCCN2CCC3(CC2)Oc2ccccc2O3)cc1 [Compound 25a, 1'-(4-Phenyl-1-butyl)-spiro[1,3-benzodioxole-2,4'-piperidine]]",11
8,"c1ccc2c(c1)OC1(CCN(CCCCc3c[nH]c4ccccc34)CC1)O2 [Compound 25b, 1'-[4-(3-Indolyl)-1-butyl]-spiro[1.3-benzodioxole-2,4'-piperidine]]",36
9,"OC(CCCN1CCC2(CC1)OCc1ccccc12)c1ccc(F)cc1 (stereo not drawn) [Compound 26a, 1'-[4-(4-Fluorophenyl)-4-hydroxy-1-butyl]-spiro[isobenzofuran-1(3H),4'-piperidine]]",0.89
10,"OC(CCCN1CCC2(CC1)OCc1ccccc12)c1ccccc1 (stereo not drawn) [Compound 26b, 1'-(4-Phenyl-4-hydroxy-1-butyl)-spiro[isobenzofuran-1(3H),4'-piperidine]]",1.9
11,"OC(CCCN1CCC2(CC1)OCc1ccccc12)C1CCCCC1 (stereo not drawn) [Compound 26c, 1'-(4-Cyclohexyl-4-hydroxy-1-butyl)spiro[isobenzofuran-1(3h),4'-piperidine]]",0.14
12,"C1=C(CCCCN2CCC3(CC2)OCc2ccccc23)c2ccccc2C1 [Compound 27, 1'-(4-(1H-Inden-3-yl)-1-butyl)-spiro[isobenzofuran-1(3H) ,4'-piperidine]]",0.11
13,"c1ccc2c(c1)CCC2CCCCN1CCC2(CC1)OCc1ccccc12 (stereo not drawn) [Compound 28, 1'-[4-(Indan-1-yl)-1-butyl]-spiro(isobenzofuran-1(3H),4'-piperidine]]",0.15
14,"C(=CC1CCc2ccccc21)CCN1CCC2(CC1)OCc1ccccc12 (stereo not drawn) [Compound 29, 1'-[4-(1-Indanyl)-but-3-en-1-yl]-spiro[isobenzofuran-1(3H),4'-piperidine]]",0.12
15,"Fc1ccc(N2CC(CCCCN3CCC4(CC3)OCc3ccccc34)c3ccccc32)cc1 (stereo not drawn) [Compound 30, 1'-(4-(2,3-Dihydro-1-(4-fluorophenyl)-3-indolyl)-1-butyl)spiro[isobenzofuran-1(3H),4'-piperidine]]",0.07
16,c1ccc2c(c1)COC21CCN(CCCSc2csc3ccccc23)CC1 [Compound 31a],0.23
17,"c1ccc2c(c1)COC1(CCN(CCCSc3csc4ccccc34)CC1)C2 [Compound 31b, 1'-[3-(Benzo[b]thiophen-3-ylthio)-1-propyl] spiro[3H-2-benzopyran-3,4'-piperidine]]",2.6
18,"O=S1(=O)CC(=CCCCN2CCC3(CC2)OCc2ccccc23)c2ccccc21 [Compound 32, 1'-[4-(2. 3-Dihydro-benzo[b]thiophen-3-yliden)-1-butyl]spiro[isobenzofuran-1(3H),4'-piperidine]-S,S-dioxide]",0.89
